The values below come from patent publication US8771644B2, “Imaging probes” (Sanofi, priority 2007, dated 2014).

The assay deals with Cath X (Homo sapiens, UniProt Q9UBR2). Briefly: in vitro activity assay (fluorescence, substrate cleavage) with Cath X. Type of assay: biochemical. The conditions noted are these: measurement performed at pH 5.5. The method, then:
[…] The substrates were solved in DMSO and added to enzyme solution with a final concentration of 50 μM.
Fluorescence was measured with an Tecan SAFIRE II spectrometer (excitation wavelength: 336 nm; emission wavelength: 490 nm; excitation band: 10.0 nm; emission band: 10.0 nm; amplification (manual): 90).

Sequence of Cath X (Q9UBR2 62-303): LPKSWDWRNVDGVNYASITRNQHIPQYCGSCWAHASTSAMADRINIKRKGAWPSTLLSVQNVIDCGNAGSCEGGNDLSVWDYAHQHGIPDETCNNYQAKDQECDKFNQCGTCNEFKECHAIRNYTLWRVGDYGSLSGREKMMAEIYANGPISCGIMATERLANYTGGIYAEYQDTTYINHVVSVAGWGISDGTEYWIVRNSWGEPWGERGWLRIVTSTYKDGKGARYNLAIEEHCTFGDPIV

On to `CN(C)c1ccc2c(c1)Oc1cc(N(C)C)ccc1C21OC(=O)c2cc(C(=O)NCC[C@H](NC(=O)[C@H](CC3CCCCC3)NC(=O)N3CCOCC3)C(=O)NCCNC(=O)c3ccc(-c4c5ccc(=O)cc-5oc5cc(O)ccc45)c(C(=O)O)c3)ccc21` [Example 10], for which the Kcat came out at 287.4 s⁻¹ and the maximum rate (Vmax) – broadly, the top rate of the reaction or transport when substrate is in excess – was determined as 7997 nmol/s.
